Laboratory results: ChEMBL document CHEMBL4689842, “EUbOPEN Chemogenomics Library wave 1” (2021)

Columns and labels:
Assay type in all cases: toxicity, cell-based
[1] = tested on: Fibroblast; assay: Incucyte cell viability with human fibroblast; settings: 10 µM, compound concentration 10 uM
[2] = tested on: U2OS; assay: Incucyte cell viability with U2OS; settings: human, 10 µM, compound concentration 10 uM
[3] = tested on: HEK-293T; assay: Incucyte cell viability with HEK293T; settings: human, 10 µM, compound concentration 10 uM
[4] = 0 h, replicate number 1, timepoint 0 hours
[5] = 6 h, replicate number 1, timepoint 6 hours
[6] = 12 h, replicate number 1, timepoint 12 hours
[7] = 18 h, replicate number 1, timepoint 18 hours
[8] = 24 h, replicate number 1, timepoint 24 hours
[9] = 12 h, replicate number 2, timepoint 12 hours
[10] = 24 h, replicate number 2, timepoint 24 hours
[11] = 0 h, replicate number 2, timepoint 0 hours
[12] = 18 h, replicate number 2, timepoint 18 hours
[13] = 6 h, replicate number 2, timepoint 6 hours
Further: filed as whole numbers so only -1 and 0 and 1 occur.

SMILES | Growth Rate [1, 4] | Growth Rate [1, 5] | Growth Rate [1, 6] | Growth Rate [1, 7] | Growth Rate [1, 8] | Growth Rate [2, 4] | Growth Rate [2, 5] | Growth Rate [2, 6] | Growth Rate [2, 7] | Growth Rate [2, 8] | Growth Rate [3, 4] | Growth Rate [3, 5] | Growth Rate [1, 12] | Growth Rate [1, 10] | Growth Rate [2, 11] | Growth Rate [3, 6] | Growth Rate [3, 7] | Growth Rate [3, 8] | Growth Rate [2, 13] | Growth Rate [3, 11] | other results
O=C(NS(=O)(=O)c1ccc(NCC2CCOCC2)c([N+](=O)[O-])c1)c1ccc(N2CCN(Cc3ccc(C(F)(F)F)cc3-c3ccc(Cl)cc3)CC2)cc1Oc1cnc2[nH]ccc2c1 [A-1210227] | 0 | 1 | 1 | 1 | 1 | 0 | 0 | 1 | 0 | 1 | 0 | 0 |  |  |  |  |  |  |  |  | Growth Rate [2, 9]: 0; Growth Rate [2, 10]: 0; Growth Rate [3, 10]: 1
Cc1cnc(Nc2ccc(F)cc2Cl)nc1-c1c[nH]c(C(=O)N[C@H](CO)c2cccc(Cl)c2)c1 |  | 0 | 1 | 0 | 0 | 0 | 0 | 0 | 0 | 0 | 0 | 0 | 1 | 1 | 1 | 0 | 0 | 0 |  |  | Growth Rate [1, 11]: 0
O=C1NCN(c2ccccc2)C12CCN(CC1COc3ccccc3O1)CC2 (configuration not stated) [SPIROXATRINE] | 0 | 1 | 1 | 0 | 1 |  |  | 1 | 1 | 1 | 1 | 0 |  | 0 | 0 | 0 | 0 | 0 | 1 | 0 | Growth Rate [1, 11]: 1; Growth Rate [1, 13]: 0; Growth Rate [1, 9]: 0
CCCCCCCCCCCCCCCCOC[C@H](COP(=O)([O-])OCC[N+](C)(C)C)OC(C)=O | 0 | 1 | 1 | 1 | 1 |  | 0 | 1 | 0 | 1 | 1 | 1 | 0 | 0 |  | 1 | 1 | 1 |  | 0 | Growth Rate [1, 13]: 0; Growth Rate [2, 9]: 0; Growth Rate [2, 12]: 1
COc1cc2c(CCNC(C)=O)c[nH]c2cc1Cl | 0 | 1 | 1 | 1 | 1 | 0 |  | 1 | 0 | 1 | 0 | 1 |  |  |  | 1 | 1 | 1 | 1 |  | Growth Rate [2, 12]: 1; Growth Rate [3, 13]: 0; Growth Rate [3, 9]: 0
CNC(=O)c1ccccc1Nc1cc(Nc2ccc(N3CCOCC3)cc2OC)ncc1C(F)(F)F [VS-4718] | 0 |  |  | 1 | 0 | 1 | 0 | 0 | 0 | 0 |  | 0 |  | 1 | 0 | 0 | 0 | 0 |  |  | 
Cc1cc([C@@H](C)Nc2cccc(-c3cc(C)c(C(=O)N[C@@H](C)C(=O)O)c(C)c3)c2)ccc1Cl | 0 | 1 | 1 | 1 | 0 | 0 |  | 1 | 0 | 1 | 1 | 0 |  |  | 1 | 0 | 0 | 0 | 0 | 0 | Growth Rate [1, 13]: 0; Growth Rate [1, 9]: 0; Growth Rate [2, 12]: 1
O=C(c1ccc(C(=O)N2CCC(N3CCCC3)CC2)c(Nc2ccccc2)c1)N1CCC(N2CCCC2)CC1 | 0 | 1 | 1 | 1 | 1 |  |  | 1 | 1 | 1 |  |  |  |  |  |  |  | 1 | 1 | 0 | 
O=C1O[C@]2(CC[C@H](C(=O)Nc3ccn(-c4ccccc4F)n3)CC2)c2cnccc21 [MK-0557] | 0 | 0 | 0 | 0 | 0 |  |  | 1 | 1 | 0 | 0 | 0 | 1 | 1 | 0 | 0 | 0 | 0 | 1 |  | Growth Rate [1, 9]: 1; Growth Rate [2, 10]: 1
C=CC(=O)N1CCC([C@@H]2CCNc3c(C(N)=O)c(-c4ccc(Oc5ccccc5)cc4)nn32)CC1 [ZANUBRUTINIB] | 1 | 0 | 0 | 0 | 0 | 0 | 0 | 0 | 0 | 0 | 0 |  | 1 | 1 |  | 0 | 0 | 0 |  |  | Growth Rate [1, 11]: 0
